Assay results reported in patent US4740501A (priority 1985, dated 1988).
Like-named read-outs stand apart in the source and are kept apart here.

Experiments:
[1] = test system: B-type mouse mammary tumor virus particles in MJY-alpha cells; experiment: Electron microscopy of thin sections; type: cell-based; details: 25 ug/ml for 2 hours
Protocol: Thin sections MJY-alpha mammary tumor cells were prepared according to standard techniques for electronmicroscopy. The magnification was scaled where the bar was equal to one um. […] The tumor virus particles are shown in the insert and also throughout the lower two-thirds of the photograph as rope-like sections. […] It should be noted that numerous microvilli are present with budding particles also in evidence. […] After that treatment period, the layer of cells was washed and then reincubated for one (1) day prior to further processing for electronmicroscopy. Although there are some microvilli with budding particles present, the number of such particles and buds is reduced. […] The layer was then similarily washed and reincubated for a two (2) days prior to further processing for electronmicroscopy.

MMTV proteins = experiment: Intracellular MMTV polypeptides (immune precipitation, NaDodSO4-PAGE); type: cell-based, mouse; details: for activity at 15 µM: Mus musculus, control 100, read-out: Relative level of MMTV-associated radioactivity (%): Total MMTV Protein
Protocol: Intracellular MMTV proteins were identified in monolayer cells after 24 or 48 hour exposure to 15 uM PTT.119. Cultures were labeled with 25 uCi/ml of (^3 H)-leucine for the first 24 hours and were then doubly labeled with (^35 S)-methionine when the spent media were replenished. The relative rates of MMTV polypeptide synthesis were determined using parallel cultures continuously-treated with PTT.119 and pulse labeled for 15 minutes with ^35 S-methionine. Following labeling, the cells were washed twice in cold 0.01M phosphate-buffered saline, pH 7.5, and a solution of protease inhibitors added to yield a final concentration of 1 uM pepstatin, 10 ug soybean trypsin inhibitor/ml, and 1 mM N-ethyl maleimide. Cells were then disrupted in 0.05M phosphate buffer containing 0.1M NaCl and 0.1% Triton X-100, pH 7.5 (Pi/NaCl/Triton). Cells were scraped from the substrate and lysis completed by passing the suspensions through a 27 gauge needle five times. Nuclei were removed by centrifugation at 600×g for 10 minutes at 4° C. and 100 ul aliquots of the supernatants mixed with 10 ul preimmune rabbit sera and 50 ul of 10% […] formalin-fixed and heat-killed.
Following a 15 minute incubation at 26° C., the Staphlococcus aureus (Cowan strain) immunoabsorbent was removed by centrifugation at 10,000×g for 1 minute in a Beckman microfuge. Supernatants (100 ul) were sequentially incubated at 26° C. with 33 ul of rabbit anti-MMTV antisera for 25 minutes and 150 ul of 10% S. aureus for 15 minutes. S. aureus was then pelleted and the precipitate washed five times in Pi/NaCl/Triton. Samples were finally resuspended in 20 ul of 1% NaDodSO4 /2-mercaptoethanol, heated for 1 minute at 100° C. to release MMTV proteins, and centrifuged to remove S. aureus. Supernatants were then subjected to NaDodSO4 -PAGE. Samples were disrupted in 1% NaDodSO4 and 1% B-mercaptoethanol at 100° C. for 1 minute electrophoresed on 10-20% polyacrylamide gradient slab gels using a discontinuous buffer system. Electrophoresis of immune precipitates from cell lysates was carried out in a similar manner using 7.5-15% polyacrylamide gradients. Mr of MMTV-related polypeptides were determined by coelectrophoresis of [^14 C]-protein standards (Mr 30,000 to 50,000 Da; New England Nuclear). Radioactivity was determined and the levels associated with MMTV polypeptide peaks quantitated using a generalized curve-fit computer program.

spontaneous leukemia = experiment: Treatment of spontaneous leukemia in AKR mice; type: in vivo
Text: Leukemia in AKR mice, which is the result of the oncogenic activity of the endogenous Gross leukemia virus, has been effectively used as a model for human leukemias in the studies of tumor biology, chemotherapy, and chemoimmunotherapy. There is considerable evidence that leukemia in the AKR mice mimics human leukemias in many respects, and it is probable that AKR leukemia is analogous to human acute T-cell lymphocytic leukemia. Leukemic cells first appear in the thymus of mice at 6 to 12 months of age. Controlling this disease is formidable, since the cure or long range control of spontaneous leukemia in AKR mice require the therapeutic eradication of virtually all of the oncogenic cells. The time lapse between the first appearance of viable lymphoma cells in the thymus and the clinical diagnosis is about 30 days.
The effectiveness of the tripeptide compound in the treatment of spontaneous leukemia in AKR mice was tested. The clinical diagnosis of spontaneous leukemia in AKR mice was made with 95% accuracy by splenic and lymph node palpation, followed by leukocyte count. There is good evidence that at the time of clinical diagnosis there are 0.6-1.8×10^9 widely disseminated lymphoma cells in AKR mice. Without cytoreductive therapy, AKR mice die after diagnosis of spontaneous leukemia at the rate of 50% by 14 days, 90% by 33 days, and 96% by 56 days. […] Reduction of thymus and spleen weights to normal is indicative of eradication of the primary tumor. Leukemic AKR mice receiving either treatment sustained a mean survival time of 200% and 100%, respectively. It is also important and significant that the tripeptide compound treatment provides good sustainment since 30% of the treated animals in either group were alive after the onset on the therapy (FIG. 6).

[2] = test system: MJY-alpha mammary tumor cells; experiment: Bioassay of tumorigenicity of in vitro treated tumor cells in syngeneic hosts; type: in vivo, BALB/c mice; details: for MEAN SURVIVAL TIME (MST) of recipients: control 42
Text: Suspensions of untreated and tripeptide treated MJY-alpha mammary tumor, B-16 melanoma, and L-1210 leukemia cells were adjusted to a concentration of 1×10^7 cells/ml based on the initial tumor cell concentration before the tripeptide exposure. Tumor cells were inoculated into syngeneic hosts at a concentration of 1×10^6 cells in […]. Female BALB/c/Crgl recipients of MJY-alpha mammary tumor cells and male C57BL/6/Jx hosts receiving B16 melanoma cells were inoculated subcutaneously; BDf1 mice were given intraperitoneal injections of L-1210 cells. Subcutaneous tumors were measured along their long and short axes every 1 to 3 days; tumor size is reported as the product of the two measurements (mm^2). The examination periods for mice receiving L-1210, MJY-alpha and B-16 tumor grafts were 45, 80, and 85 days, respectively. All mice were autopsied at the time of death or sacrifice.

CCOC(=O)[C@H](CCSC)NC(=O)[C@H](Cc1cccc(N(CCCl)CCCl)c1)NC(=O)[C@@H](N)Cc1ccc(F)cc1.Cl [PTT.119, 3-(p-fluorophenyl)-L-alanyl-3-[m-bis(2-chloroethyl)aminophenyl]-L-alanyl-L-methionine ethyl ester hydrochloride]
number of microvilli budding particles and buds ([1]; reincubated 1 day): reduced
number of microvilli ([1]; reincubated 2 days): reduced even farther
levels of radiolabeled MMTV polypeptides higher than in parallel controls (MMTV proteins; 15 min pulse labelling at end of 24 and 48 hour treatment): 1.5 fold
activity at 15 µM (MMTV proteins; 24 hr, 15 min pulse labelling): 181%
activity at 15 µM (MMTV proteins; 48 hr, 15 min pulse labelling): 154%
activity at 15 µM (MMTV proteins; 48 hr, 24 hr labeling): 125%
activity at 15 µM (MMTV proteins; 24 h, 24 hr, 24 hr labeling): 128%
mean survival time (spontaneous leukemia; 5 mg per kg on days 1, 4, 7, 21, and 42): 100%
mean survival time (spontaneous leukemia; 10 mg per kg on days 1 and 14): 200%
leukemic thymus and spleen weights (spontaneous leukemia; after chemotherapy, either regimen): Significant reductions
treated animals alive after the onset of therapy (spontaneous leukemia; either treatment group): 30%
tumor growth in recipients ([2]; 10^6 MJY-alpha cells treated with 25 ug or higher for 30 to 240 min): complete absence of tumor growth
MEAN SURVIVAL TIME (MST) of recipients ([2]; MJY-alpha, 5 ug/ml, 60 min): 52 days
MEAN SURVIVAL TIME (MST) of recipients ([2]; MJY-alpha, 5 ug/ml, 120 min): 43 days
MEAN SURVIVAL TIME (MST) of recipients ([2]; MJY-alpha, 10 ug/ml, 30 min): 44 days
MEAN SURVIVAL TIME (MST) of recipients ([2]; MJY-alpha, 10 ug/ml, 60 min): 46 days
MEAN SURVIVAL TIME (MST) of recipients ([2]; MJY-alpha, 10 ug/ml, 120 min): 61 days
MEAN SURVIVAL TIME (MST) of recipients ([2]; MJY-alpha, 25 ug/ml, 30 min): 56 days
initial lag period between inoculation and appearance of palpable tumors ([2]; MJY-alpha, increasing dosages, 2 hr treatment): lengthened
reduction of viable tumor cell population ([2]; MJY-alpha, inferred from LD100 of 100 viable cells): at least 99.9%
tumor growth rates of untreated and treated cells ([2]; MJY-alpha, once graft established): identical
